Assay results: patent publication US20050014742A1, “Use of inhibitors of the y2 receptor of neuropeptide y in the treatment of alcoholism” (priority 2001, published 2005)
“Also recorded” adds a separate entry of the source.

Experiments:
Format in all cases: in vivo, rat
Male Wistar rats = test: Operant ethanol self-administration after intracerebroventricular injection
Experimental: Male Wistar rats (Charles River, Hamburg, Germany), appr. 225 g at start of experiment were used for the experiments from which data are presented. For a replication experiment (see Results), Wistar males of the same age but delivered by Mollegard, Ry, Denmark, were used. Subjects were housed on a reversed light-cycle (lights off 11 am, on 11 pm). Following training for operant responding (see below), surgery was carried out for unilateral cannula implantation. Rats were anaesthetized with ketaminelxylazine (80 mg/kg and 15 mg/kg) and placed in a stereotaxic apparatus (Kopf). Stainless steel guide cannulas (23 gauge, PlasticOne, Roanoke, Va.) aimed at the lateral ventricle were implanted and secured to the skull with stainless screws and dental cement. Final injection coordinates were: A=−0.8, L=±1.4, V=−4.3 from Bregma (15). Animals were allowed to recover for one week, during which time they were only repeatedly handled, in order to reduce the stress of subsequent intracerebroventricular injections. They were then reintroduced to the operant task (see below), and allowed to re-establish their rates of operant responding for two weeks. Finally, the actual Latin-square design was initiated, and carried out over the course of three weeks.
BIIE0246 ([…]; kind gift of Boehringer Ingelheim) or saline was injected i.c.v. via an injection cannula (28-gauge) connected to a 10 μl Hamilton syringe with a low-volume plastic tubing. […] The drug was dissolved in 0.9% NaCl and injected 45 min prior to onset of sessions, in a volume of 10 μl over a period of 2 min interval. The injection cannula was left in place for an additional minute to prevent back flow.
Following completion of training, rats were subjected to surgery, allowed to recover for one week and to stabilize their baseline responding for two weeks, after which a Latin Square design was initiated and carried out over three weeks. During each of these weeks, rats were run Monday-Friday, and drug administration was on Friday. […] In order to retain a balanced design, the analysis presented here includes only those subjects, which completed all treatments. An analysis based on all subjects, with missing values for failed injections, produced a virtually identical result.

Wistar rats = test: Exploratory locomotor activity after intracerebroventricular administration; settings: for Horizontal locomotor activity / Vertical locomotor activity (rearings): 30 min test period, n=6, mean ± SEM
rats = test: Preliminary dose-finding experiments (sedation); settings: dose of 3 nmol i.c.v.
Experimental: […] […] The drug was dissolved in 0.9% NaCl and injected 45 min prior to onset of sessions, in a volume of 10 μl over a period of 2 min interval. The injection cannula was left in place for an additional minute to prevent back flow.

[1] = Wistar rats from Mollegard, separate experiment (data not shown)

In the case of N=C(N)NCCC[C@H](NC(=O)CC1(CC(=O)N2CCN(C3c4ccccc4NC(=O)c4ccccc43)CC2)CCCC1)C(=O)NCCn1c(=O)n(-c2ccccc2)n(-c2ccccc2)c1=O (stereo partly drawn) [BIIE0246, (S)—N^2-//1-/2-/4-/(R,S)-5,11-Dihydro-6(6H)-oxodibenz/b,elazepin-11-yl/-1-piperazinyl/-2-oxoethyl/-cyclopentyl/acetyl/-N-/2-/1,2-dihydro-3,5(4H)-dioxo-1,2-diphenyl-3H-1,2,4-triazol-4-yl/-ethyl/-argininamide], the “Ethanol-reinforced responses over time (cumulative, 5 min intervals)” value (Male Wistar rats; 1.0 nmol i.c.v., 30 min session, vs saline, Tukey HSD p<0.001) is reported as “present during min 10-30; also recorded: significantly less during the last 20 but not during the initial 10 min”, the “Reduction of total responding for ethanol” value (Male Wistar rats; 1.0 nmol i.c.v., 45 min before 30 min session, Wistar rats (Charles River), p<0.05 vs saline and vs 0.3 nmol) is reported as ~40% and the Responding for ethanol (Male Wistar rats; 1.0 nmol i.c.v., n=13, p=0.013 (FIG. 1A)) is reported as “significantly reduced”. For the same compound, the “Effect on saccharin solution, replication experiment” value (Male Wistar rats; [1]) was “no effect”, the “Suppression of responding for ethanol, replication experiment” value (Male Wistar rats; [1]) was 40% and the “Total responding for ethanol (overall treatment effect)” value (Male Wistar rats; i.c.v., 0, 0.3 and 1.0 nmol, one way ANOVA, n=13, p=0.013) was “significantly reduced”. For the same compound, the Responding for saccharin (Male Wistar rats; i.c.v., 0.3 and 1.0 nmol, p=0.25, Charles River Wistar rats) was “unaffected”, the Horizontal locomotor activity (Wistar rats; 0.3 nmol i.c.v.) was 2873.8 ± 572.0 and the “Vertical locomotor activity (rearings)” value (Wistar rats; 0.3 nmol i.c.v.) was 756.8 ± 122.9. The Horizontal locomotor activity (Wistar rats; 1.0 nmol i.c.v.) was 2630.2 ± 480.0, the “Vertical locomotor activity (rearings)” value (Wistar rats; 1.0 nmol i.c.v.) was 503.3 ± 113.4 and the “Effect of treatment on horizontal and vertical locomotor activity” value (Wistar rats; i.c.v., 0.3 and 1.0 nmol, n=6, p=0.74 horizontal, p=0.17 vertical) was “Neither horisontal (n=6; F[2,15]=0.3; p=0.74) nor vertical activity (F[2,15]=2.0; p=0.17) was affected”. The Sedative effect (rats) was “marked sedative effects”.
